In patent publication US20090281049A1, “New use of ginsenoside compound-k in manufacturing medicaments” (priority 2006, published 2009):

Key:
[1] = tested on: carrageenan-induced acute inflammation in mice; experiment: Carrageenan-induced paw edema in mice; type: in vivo, Kunming mice
[2] = tested on: Adjuvant Arthritis in rats; experiment: Preventive effect on adjuvant induced adjuvant arthritis in rats; type: in vivo, Rat, SD strain
Procedure: Freund's Adjuvant Complete, purchased from Sigma Company, was injected into the plantar surface of the right hind paw by 0.1 ml in order to induce inflammation in rats.
Animals were firstly divided into large dose group: 10 mg/kg, iv, medium dose group: 5 mg/kg, iv, small dose group: 2.5 mg/kg, iv, Indomethacin group: 1 mg/kg, po, Tripterygium Wilfordii Hook group: 1.5 mg/kg, po and blank control group: physiological saline 10 mg/kg, iv. The volume of the right hind paw of the rats was measured by using hydroplethismometer before inflammation induced. Then 0.1 ml Freund's Adjuvant Complete was injected into the plantar surface of the right hind paw in order to induce inflammation in rats. The rats were grouped by the foregoing division way in the succeeding day, and to be administered for 15 days. The volume of paw was measured in regular intervals. Swell rate and inhibition rate were calculated by the same method as the foregoing. Differences among groups were compared by t test.

[3] = mice, 360 mg/kg iv

Compound: CC(C)=CCC[C@](C)(O[C@@H]1O[C@H](CO)[C@@H](O)[C@H](O)[C@H]1O)[C@H]1CC[C@]2(C)[C@@H]1[C@H](O)C[C@@H]1[C@@]3(C)CC[C@H](O)C(C)(C)[C@@H]3CC[C@]12C [Ginsenoside Compound-K, ginsenoside Compound-K]
- swell value ([1]; 2.5 mg/kg iv, 0 h): 1.49 ± 0.15 mL
- inhibition rate ([1]; 2.5 mg/kg iv, 1 h): <14.70> %
- swell rate ([1]; 2.5 mg/kg iv, 1 h): (66.63 ± 7.82) %
- swell value ([1]; 2.5 mg/kg iv, 1 h): 2.36 ± 0.22 mL
- inhibition rate ([1]; 2.5 mg/kg iv, 2 h): <12.30> %
- swell rate ([1]; 2.5 mg/kg iv, 2 h): (64.26 ± 14.54) %
- swell value ([1]; 2.5 mg/kg iv, 2 h): 2.43 ± 0.23 mL
- inhibition rate ([1]; 2.5 mg/kg iv, 4 h): <29.40> %
- swell rate ([1]; 2.5 mg/kg iv, 4 h): (61.75 ± 11.27) %
- swell value ([1]; 2.5 mg/kg iv, 4 h): 2.33 ± 0.17 mL
- inhibition rate ([1]; 2.5 mg/kg iv, 6 h): <31.64> %
- swell rate ([1]; 2.5 mg/kg iv, 6 h): (53.48 ± 11.12) %
- swell value ([1]; 2.5 mg/kg iv, 6 h): 2.22 ± 0.15 mL
- swell value ([1]; 5 mg/kg iv, 0 h): 1.47 ± 0.13 mL
- inhibition rate ([1]; 5 mg/kg iv, 1 h): <11.33> %
- swell rate ([1]; 5 mg/kg iv, 1 h): (60.97 ± 18.09) %
- swell value ([1]; 5 mg/kg iv, 1 h): 2.36 ± 0.23 mL
- inhibition rate ([1]; 5 mg/kg iv, 2 h): <16.08> %
- swell rate ([1]; 5 mg/kg iv, 2 h): (60.97 ± 18.41) %
- swell value ([1]; 5 mg/kg iv, 2 h): 2.35 ± 0.16 mL
- inhibition rate ([1]; 5 mg/kg iv, 4 h): <44.03> %
- swell rate ([1]; 5 mg/kg iv, 4 h): (45.04 ± 18.30) %
- swell value ([1]; 5 mg/kg iv, 4 h): 2.12 ± 0.22 mL
- inhibition rate ([1]; 5 mg/kg iv, 6 h): <31.98> %
- swell rate ([1]; 5 mg/kg iv, 6 h): (49.81 ± 17.26) %
- swell value ([1]; 5 mg/kg iv, 6 h): 2.19 ± 0.19 mL
- swell value ([1]; 10 mg/kg iv, 0 h): 1.56 ± 0.17 mL
- inhibition rate ([1]; 10 mg/kg iv, 1 h): <40.64> %
- swell rate ([1]; 10 mg/kg iv, 1 h): (40.81 ± 10.14) %
- swell value ([1]; 10 mg/kg iv, 1 h): 2.18 ± 0.18 mL
- inhibition rate ([1]; 10 mg/kg iv, 2 h): <42.79> %
- swell rate ([1]; 10 mg/kg iv, 2 h): (41.56 ± 13.38) %
- swell value ([1]; 10 mg/kg iv, 2 h): 2.19 ± 0.20 mL
- inhibition rate ([1]; 10 mg/kg iv, 4 h): <65.66> %
- swell rate ([1]; 10 mg/kg iv, 4 h): (27.64 ± 8.46) %
- swell value ([1]; 10 mg/kg iv, 4 h): 1.98 ± 0.20 mL
- inhibition rate ([1]; 10 mg/kg iv, 6 h): <67.80> %
- swell rate ([1]; 10 mg/kg iv, 6 h): (23.58 ± 15.23) %
- swell value ([1]; 10 mg/kg iv, 6 h): 1.91 ± 0.22 mL
- overall effect on carrageenan-induced acute inflammation ([1]; mice, 10, 5, 2.5 mg/kg iv): able to inhibit carrageenan-induced acute inflammation in mice obviously
- swell value ([2]; 2.5 mg/kg iv, 0 day): 1.24 ± 0.08 mL
- inhibition rate ([2]; 2.5 mg/kg iv, 2 day): <21.71> %
- swell rate ([2]; 2.5 mg/kg iv, 2 day): (56.65 ± 17.83) %
- swell value ([2]; 2.5 mg/kg iv, 2 day): 2.14 ± 0.15 mL
- inhibition rate ([2]; 2.5 mg/kg iv, 4 day): <18.33> %
- swell rate ([2]; 2.5 mg/kg iv, 4 day): (73.11 ± 15.82) %
- swell value ([2]; 2.5 mg/kg iv, 4 day): 2.14 ± 0.15 mL
- inhibition rate ([2]; 2.5 mg/kg iv, 6 day): <20.67> %
- swell rate ([2]; 2.5 mg/kg iv, 6 day): (70.87 ± 14.91) %
- swell value ([2]; 2.5 mg/kg iv, 6 day): 2.11 ± 0.10 mL
- inhibition rate ([2]; 2.5 mg/kg iv, 9 day): <20.95> %
- swell rate ([2]; 2.5 mg/kg iv, 9 day): (57.25 ± 14.42) %
- swell value ([2]; 2.5 mg/kg iv, 9 day): 1.95 ± 0.17 mL
- inhibition rate ([2]; 2.5 mg/kg iv, 11 day): <20.82> %
- swell rate ([2]; 2.5 mg/kg iv, 11 day): (61.69 ± 21.61) %
- swell value ([2]; 2.5 mg/kg iv, 11 day): 2.00 ± 0.26 mL
- inhibition rate ([2]; 2.5 mg/kg iv, 13 day): <25.97> %
- swell rate ([2]; 2.5 mg/kg iv, 13 day): (61.24 ± 13.26) %
- swell value ([2]; 2.5 mg/kg iv, 13 day): 2.00 ± 0.15 mL
- inhibition rate ([2]; 2.5 mg/kg iv, 15 day): <28.05> %
- swell rate ([2]; 2.5 mg/kg iv, 15 day): (58.02 ± 15.92) %
- swell value ([2]; 2.5 mg/kg iv, 15 day): 1.96 ± 0.20 mL
- swell value ([2]; 5 mg/kg iv, 0 day): 1.25 ± 0.06 mL
- inhibition rate ([2]; 5 mg/kg iv, 2 day): <35.56> %
- swell rate ([2]; 5 mg/kg iv, 2 day): (46.63 ± 11.66) %
- swell value ([2]; 5 mg/kg iv, 2 day): 2.10 ± 0.21 mL
- inhibition rate ([2]; 5 mg/kg iv, 4 day): <23.65> %
- swell rate ([2]; 5 mg/kg iv, 4 day): (68.35 ± 15.68) %
- swell value ([2]; 5 mg/kg iv, 4 day): 2.10 ± 0.21 mL
- inhibition rate ([2]; 5 mg/kg iv, 6 day): <17.94> %
- swell rate ([2]; 5 mg/kg iv, 6 day): (73.31 ± 17.73) %
- swell value ([2]; 5 mg/kg iv, 6 day): 2.16 ± 0.18 mL
- inhibition rate ([2]; 5 mg/kg iv, 9 day): <20.45> %
- swell rate ([2]; 5 mg/kg iv, 9 day): (57.60 ± 13.83) %
- swell value ([2]; 5 mg/kg iv, 9 day): 1.97 ± 0.21 mL
- inhibition rate ([2]; 5 mg/kg iv, 11 day): <28.37> %
- swell rate ([2]; 5 mg/kg iv, 11 day): (55.81 ± 11.54) %
- swell value ([2]; 5 mg/kg iv, 11 day): 1.95 ± 0.18 mL
- inhibition rate ([2]; 5 mg/kg iv, 13 day): <27.79> %
- swell rate ([2]; 5 mg/kg iv, 13 day): (59.74 ± 11.82) %
- swell value ([2]; 5 mg/kg iv, 13 day): 2.00 ± 0.18 mL
- inhibition rate ([2]; 5 mg/kg iv, 15 day): <29.21> %
- swell rate ([2]; 5 mg/kg iv, 15 day): (57.08 ± 14.00) %
- swell value ([2]; 5 mg/kg iv, 15 day): 1.96 ± 0.21 mL
- swell value ([2]; 10 mg/kg iv, 0 day): 1.29 ± 0.08 mL
- inhibition rate ([2]; 10 mg/kg iv, 2 day): <29.48> %
- swell rate ([2]; 10 mg/kg iv, 2 day): (51.03 ± 8.03) %
- swell value ([2]; 10 mg/kg iv, 2 day): 2.17 ± 0.14 mL
- inhibition rate ([2]; 10 mg/kg iv, 4 day): <22.99> %
- swell rate ([2]; 10 mg/kg iv, 4 day): (68.94 ± 10.49) %
- swell value ([2]; 10 mg/kg iv, 4 day): 2.17 ± 0.14 mL
- inhibition rate ([2]; 10 mg/kg iv, 6 day): <19.52> %
- swell rate ([2]; 10 mg/kg iv, 6 day): (71.90 ± 9.64%
- swell value ([2]; 10 mg/kg iv, 6 day): 2.21 ± 0.15 mL
- inhibition rate ([2]; 10 mg/kg iv, 9 day): <19.59> %
- swell rate ([2]; 10 mg/kg iv, 9 day): (58.23 ± 11.44) %
- swell value ([2]; 10 mg/kg iv, 9 day): 2.03 ± 0.15 mL
- inhibition rate ([2]; 10 mg/kg iv, 11 day): <30.08> %
- swell rate ([2]; 10 mg/kg iv, 11 day): (54.48 ± 12.39) %
- swell value ([2]; 10 mg/kg iv, 11 day): 1.98 ± 0.14 mL
- inhibition rate ([2]; 10 mg/kg iv, 13 day): <29.83> %
- swell rate ([2]; 10 mg/kg iv, 13 day): (58.04 ± 10.97) %
- swell value ([2]; 10 mg/kg iv, 13 day): 2.03 ± 0.13 mL
- inhibition rate ([2]; 10 mg/kg iv, 15 day): <31.26> %
- swell rate ([2]; 10 mg/kg iv, 15 day): (55.42 ± 14.65) %
- swell value ([2]; 10 mg/kg iv, 15 day): 1.99 ± 0.18 mL
- overall preventive effect on Adjuvant Arthritis ([2]; rats, 10, 5, 2.5 mg/kg iv for 15 days): able to prevent Adjuvant Arthritis in rats
- behaviour after intravenous injection [3]: their act was normal and no behavior out of the way was observed
